Assay results: ChEMBL document CHEMBL1152667, “Synthesis and radiopharmacological investigation of 3-[4'-[(18)F]fluorobenzylidene]indolin-2-one as possible tyrosine kinase inhibitor” (Bioorg Med Chem, 2009)

Key:
[1] = Metabolic stability in Wistar rat blood assessed as compound remaining at 30 MBq, iv after 10 mins by radio-HPLC analysis; assay type: ADME, organism-based; details: read-out: Stability
[2] = Metabolic stability in Wistar rat plasma assessed as compound remaining at 0.5 MBq after 60 mins by radio-HPLC analysis; assay type: ADME, cell-free; details: read-out: Stability
Kidney [3] = experiment: Biodistribution in Wistar rat kidney at 1.7 MBq, iv administered as single dose measured after 30 mins post-injection by gamma counting; assay type: ADME, organism-based; details: in vivo, 0.5 h
[4] = Biodistribution in Wistar rat brown adipose tissue assessed as standard uptake value at 1.7 MBq, iv administered as single dose measured after 10 mins post-injection by gamma counting; assay type: ADME, organism-based; details: in vivo
Lung [5] = experiment: Biodistribution in Wistar rat lung at 1.7 MBq, iv administered as single dose measured after 60 mins post-injection by gamma counting; assay type: ADME, organism-based; details: in vivo, 1 h
Harderian gland [6] = experiment: Biodistribution in Wistar rat harderian gland assessed as standard uptake value at 1.7 MBq, iv administered as single dose measured after 30 mins post-injection by gamma counting; assay type: ADME, organism-based; details: in vivo, 0.5 h
Blood [7] = experiment: Biodistribution in Wistar rat blood assessed as standard uptake value at 1.7 MBq, iv administered as single dose measured after 60 mins post-injection by gamma counting; assay type: ADME, organism-based; details: in vivo, 1 h
Thymus [8] = experiment: Biodistribution in Wistar rat thymus assessed as standard uptake value at 1.7 MBq, iv administered as single dose measured after 5 mins post-injection by gamma counting; assay type: ADME, organism-based; details: in vivo
[9] = Biodistribution in Wistar rat adipose tissue assessed as standard uptake value at 1.7 MBq, iv administered as single dose measured after 5 mins post-injection by gamma counting; assay type: ADME, organism-based; details: in vivo
Liver [10] = experiment: Biodistribution in Wistar rat liver at 1.7 MBq, iv administered as single dose measured after 10 mins post-injection by gamma counting; assay type: ADME, organism-based; details: in vivo
Intestine = experiment: Biodistribution in Wistar rat intestine at 1.7 MBq, iv administered as single dose measured after 1 min post-injection by gamma counting; assay type: ADME, organism-based; details: in vivo
Liver [11] = experiment: Biodistribution in Wistar rat liver assessed as standard uptake value at 1.7 MBq, iv administered as single dose measured after 10 mins post-injection by gamma counting; assay type: ADME, organism-based; details: in vivo
[12] = Ratio of drug level in brain to blood in Wistar rat at 1.7 MBq, iv administered as single dose measured after 5 mins post-injection; assay type: ADME, organism-based
[13] = Biodistribution in Wistar rat thyroid gland at 1.7 MBq, iv administered as single dose measured after 5 mins post-injection by gamma counting; assay type: ADME, organism-based; details: in vivo
Adrenal gland [14] = experiment: Biodistribution in Wistar rat adrenal gland at 1.7 MBq, iv administered as single dose measured after 30 mins post-injection by gamma counting; assay type: ADME, organism-based; details: in vivo, 0.5 h
Blood [15] = experiment: Biodistribution in Wistar rat blood assessed as standard uptake value at 1.7 MBq, iv administered as single dose measured after 5 mins post-injection by gamma counting; assay type: ADME, organism-based; details: in vivo
Brain = experiment: Biodistribution in Wistar rat brain assessed as standard uptake value at 1.7 MBq, iv administered as single dose measured after 10 mins post-injection by gamma counting; assay type: ADME, organism-based; details: in vivo
Harderian gland [16] = experiment: Biodistribution in Wistar rat harderian gland assessed as standard uptake value at 1.7 MBq, iv administered as single dose measured after 10 mins post-injection by gamma counting; assay type: ADME, organism-based; details: in vivo
Lung [17] = experiment: Biodistribution in Wistar rat lung assessed as standard uptake value at 1.7 MBq, iv administered as single dose measured after 5 mins post-injection by gamma counting; assay type: ADME, organism-based; details: in vivo
[18] = Ratio of drug level in liver to blood in Wistar rat at 1.7 MBq, iv administered as single dose measured after 60 mins post-injection; assay type: ADME, organism-based
[19] = Biodistribution in Wistar rat brown adipose tissue assessed as standard uptake value at 1.7 MBq, iv administered as single dose measured after 60 mins post-injection by gamma counting; assay type: ADME, organism-based; details: in vivo, 1 h
Thymus [20] = experiment: Biodistribution in Wistar rat thymus assessed as standard uptake value at 1.7 MBq, iv administered as single dose measured after 30 mins post-injection by gamma counting; assay type: ADME, organism-based; details: in vivo, 0.5 h
Heart [21] = experiment: Biodistribution in Wistar rat heart at 1.7 MBq, iv administered as single dose measured after 1 min post-injection by gamma counting; assay type: ADME, organism-based; details: in vivo
[22] = Biodistribution in Wistar rat stomach at 1.7 MBq, iv administered as single dose measured after 1 min post-injection by gamma counting; assay type: ADME, organism-based; details: in vivo
Kidney [23] = experiment: Biodistribution in Wistar rat kidney assessed as standard uptake value at 1.7 MBq, iv administered as single dose measured after 10 mins post-injection by gamma counting; assay type: ADME, organism-based; details: in vivo
Heart [24] = experiment: Biodistribution in Wistar rat heart at 1.7 MBq, iv administered as single dose measured after 10 mins post-injection by gamma counting; assay type: ADME, organism-based; details: in vivo
Heart [25] = experiment: Biodistribution in Wistar rat heart assessed as standard uptake value at 1.7 MBq, iv administered as single dose measured after 10 mins post-injection by gamma counting; assay type: ADME, organism-based; details: in vivo
[26] = Biodistribution in Wistar rat brown adipose tissue assessed as standard uptake value at 1.7 MBq, iv administered as single dose measured after 5 mins post-injection by gamma counting; assay type: ADME, organism-based; details: in vivo
Thymus [27] = experiment: Biodistribution in Wistar rat thymus assessed as standard uptake value at 1.7 MBq, iv administered as single dose measured after 60 mins post-injection by gamma counting; assay type: ADME, organism-based; details: in vivo, 1 h
Muscle tissue = experiment: Biodistribution in Wistar rat muscle assessed as standard uptake value at 1.7 MBq, iv administered as single dose measured after 60 mins post-injection by gamma counting; assay type: ADME, organism-based; details: in vivo, 1 h
[28] = Biodistribution in Wistar rat urine at 1.7 MBq, iv administered as single dose measured after 30 mins post-injection by gamma counting; assay type: ADME, organism-based; details: in vivo, 0.5 h
Lung [29] = experiment: Biodistribution in Wistar rat lung at 1.7 MBq, iv administered as single dose measured after 10 mins post-injection by gamma counting; assay type: ADME, organism-based; details: in vivo
Harderian gland [30] = experiment: Biodistribution in Wistar rat harderian gland at 1.7 MBq, iv administered as single dose measured after 30 mins post-injection by gamma counting; assay type: ADME, organism-based; details: in vivo, 0.5 h
Liver [31] = experiment: Biodistribution in Wistar rat liver at 1.7 MBq, iv administered as single dose measured after 5 mins post-injection by gamma counting; assay type: ADME, organism-based; details: in vivo
[32] = Ratio of drug level in adrenal gland to blood in Wistar rat at 1.7 MBq, iv administered as single dose measured after 5 mins post-injection; assay type: ADME, organism-based
[33] = Biodistribution in Wistar rat stomach at 1.7 MBq, iv administered as single dose measured after 5 mins post-injection by gamma counting; assay type: ADME, organism-based; details: in vivo
[34] = Ratio of drug level in brain to blood in Wistar rat at 1.7 MBq, iv administered as single dose measured after 60 mins post-injection; assay type: ADME, organism-based
[35] = Ratio of drug level in adrenal gland to blood in Wistar rat at 1.7 MBq, iv administered as single dose measured after 60 mins post-injection; assay type: ADME, organism-based
[36] = Biodistribution in Wistar rat thyroid gland assessed as standard uptake value at 1.7 MBq, iv administered as single dose measured after 30 mins post-injection by gamma counting; assay type: ADME, organism-based; details: in vivo, 0.5 h
[37] = Biodistribution in Wistar rat urine at 1.7 MBq, iv administered as single dose measured after 10 mins post-injection by gamma counting; assay type: ADME, organism-based; details: in vivo
Spleen = experiment: Biodistribution in Wistar rat spleen assessed as standard uptake value at 1.7 MBq, iv administered as single dose measured after 60 mins post-injection by gamma counting; assay type: ADME, organism-based; details: in vivo, 1 h
Adrenal gland [38] = experiment: Biodistribution in Wistar rat adrenal gland at 1.7 MBq, iv administered as single dose measured after 60 mins post-injection by gamma counting; assay type: ADME, organism-based; details: in vivo, 1 h

O=C1Nc2ccccc2/C1=C/c1ccc([18F])cc1
remaining at 10 min [1]: 18%
remaining at 1 h, 0.5 MBq [2]: 96%
Drug uptake (Kidney [3]): 1.45 %ID
SUV [4]: 1.83%
Drug uptake (Lung [5]): 0.19 %ID
SUV (Harderian gland [6]): 1.07%
SUV (Blood [7]): 0.15%
SUV (Thymus [8]): 0.82%
SUV [9]: 1.21%
Drug uptake (Liver [10]): 17.84 %ID
Drug uptake (Intestine): 8.84 %ID
SUV (Liver [11]): 3.03%
Kp at 5 min [12]: 3
Drug uptake [13]: 0.08 %ID
Drug uptake (Adrenal gland [14]): 0.04 %ID
SUV (Blood [15]): 0.56%
SUV (Brain): 0.97%
SUV (Harderian gland [16]): 1.91%
SUV (Lung [17]): 1.3%
Kp at 1 h [18]: 7.9
SUV [19]: 0.63%
SUV (Thymus [20]): 0.26%
Drug uptake (Heart [21]): 1.01 %ID
Drug uptake [22]: 0.71 %ID
SUV (Kidney [23]): 2.27%
Drug uptake (Heart [24]): 0.35 %ID
SUV (Heart [25]): 0.88%
SUV [26]: 2.29%
SUV (Thymus [27]): 0.13%
SUV (Muscle tissue): 0.19%
Drug uptake [28]: 11.23 %ID
Drug uptake (Lung [29]): 0.66 %ID
Drug uptake (Harderian gland [30]): 0.14 %ID
Drug uptake (Liver [31]): 18.4 %ID
Kp at 5 min [32]: 10.2
Drug uptake [33]: 0.94 %ID
Kp at 1 h [34]: 3.2
Kp at 1 h [35]: 8.9
SUV [36]: 0.4%
Drug uptake [37]: 6.98 %ID
SUV (Spleen): 0.13%
Drug uptake (Adrenal gland [38]): 0.04 %ID
